Measured values: patent EP4620962A1, “PEPTIDE HAVING ACTIVITIES TO PROMOTE HAIR GROWTH AND AMELIORATE DAMAGED HAIR, AND USE THEREOF” (Caregen Co., Ltd., priority 2022, dated 2025)

Tests used:
beta-catenin = assay: Nuclear beta-catenin Western blot in hair follicle dermal papilla cells; type: cell-based, human; conditions: nuclear proteins, HDAC1 as nuclear marker, FIGS. 5 and 6
Protocol: In this experimental example, effects of a peptide according to an embodiment on proliferation mechanism of human hair follicle dermal papilla cells were examined. Specifically, human hair follicle dermal papilla cells were incubated in the same manner as in Experimental Example 2-2, and treated with a peptide according to an embodiment. Then, nuclear proteins were isolated from the culture by using a nuclear protein extraction kit (Thermo scientific, USA). Subsequently, expression levels of proteins were examined in the same manner as in Experimental Example 2-2 by using beta-catenin (cell signaling, USA) and HDAC1 (santa cruz, USA) antibodies. Meanwhile, a untreated group was used as a control, and a group treated with 10 ng/mL recombinant human Wnt-3a protein (rhWnt-3a, R&D systems (USA, MN)) was used as a positive control.

ERF and AKT = assay: Western blot of proliferation-related factors (phospho-AKT, phospho-ERK) in hair follicle dermal papilla cells; type: cell-based, human; conditions: 5 µM, or 50 µM, 24 hours, FIGS. 3 and 4
Protocol: In this experimental example, effects of a peptide according to an embodiment on activation of factors related to proliferation of human hair follicle dermal papilla cells were examined. Specifically, human hair follicle dermal papilla cells were seeded on a 6-well plate at a density of 4×10^5 cells/well, followed by incubation in a mesenchymal stem cell complete medium for 24 hours. Thereafter, a peptide according to an embodiment was aliquoted thereinto at a concentration of […], 5 µM, or 50 µM, followed by incubation for 24 hours at 37 °C. Then, the culture was washed with PBS, and 100 µL of a lysis buffer to prepare a cell lysate. Subsequently, bicinchoninic acid (BCA) was quantified to prepare an equal amount of a protein sample, followed by electrophoresis using a 10 % SDS-PAGE gel. Thereafter, proteins separated by the SDS-PAGE were transferred to a PVDF membrane, and the reaction was blocked using a 5 % skim milk at room temperature for 30 minutes. Then, phospho-AKT and phospho-ERK (cell signaling, USA) antibodies were diluted in a 3 % BSA at 1:1000 and reacted with the blocked PVDF membrane at 4 °C for 16 hours. Subsequently, the reactants were washed with 0.1 % PBS-T (0.1 % Tween-20 in PBS) three times each for 15 minutes and reacted for 1 hour with a secondary antibody diluted with 5 % skim milk at 1:2000. […]

[1] = system: human hair follicle dermal papilla cells (HFDPCs); assay: Proliferation of hair follicle dermal papilla cells (MTT); type: cell-based; conditions: 5 µM, or 50 µM, 72 hours, absorbance at 540 nm, FIGS. 1 and 2
Protocol: In this experimental example, effects of a peptide according to an embodiment on proliferation of human hair follicle dermal papilla cells were examined by evaluating a change in viability of the human hair follicle dermal papilla cells (HFDPCs). Specifically, human hair follicle dermal papilla cells were seeded on a 96-well plate at a density of 4×10^3 cells/well, followed by incubation in a mesenchymal stem cell complete medium for 24 hours. Subsequently, the culture medium was replaced with a serum free mesenchymal stem cell complete medium, followed by incubation for 24 hours. Thereafter, a peptide according to an embodiment was aliquoted thereinto at a concentration of […], 5 µM, or 50 µM, followed by incubation for 72 hours at 37 °C. Then, the culture was washed with PBS, and 10 µL of a 5 mg/ml MTT solution was aliquoted into each well. After incubating the culture in a CO2 incubator for 4 hours, the culture medium was removed, and 100 µL of dimethyl sulfoxide (DMSO) was added thereto, followed by stirring for 10 minutes. Thereafter, absorbance was measured at a wavelength of 540 nm by using a spectrophotometer. Meanwhile, a untreated group was used as a control, and a group treated with 1 µM EGF was used as a positive control.

DKK-1 (Dickkopf-1) = assay: DKK-1 expression (Western blot) in DHT-treated hair follicle dermal papilla cells; type: cell-based, human; conditions: dihydrotestosterone (DHT) added; 5 µM, or 50 µM; FIGS. 9 and 10
[2] = system: LEF-1, c-Myc, and cyclin D1; assay: RT-PCR of beta-catenin downstream target genes in hair follicle dermal papilla cells; type: cell-based, human; conditions: RNA level, FIG. 7 (Peptide-1: c-Myc, cyclin D1), FIG. 8 (Peptide-2: LEF-1, c-Myc, cyclin D1)
Protocol: In addition, a change in expression levels of lymphoid enhancer-binding factor-1 (LEF-1), c-Myc, and cyclin D1, which are downstream target genes of activating mechanism of beta-catenin, was examined. To this end, human hair follicle dermal papilla cells were incubated in the same manner in Experimental Example 2-2 and treated with a peptide according to an embodiment. Thereafter, the culture was washed with PBS and treated with 300 µL of easy blue (intron, Korea) to extract RNAs. Then, the extract RNAs were quantified by Nano drop, and cDNA was synthesized by using the RNAs as a template and using a cDNA synthesis kit (enzynomics, Korea). Then, polymerase chain reaction (PCR) was carried out using primers of Table 2 below and a PCR premix (enzynomics, Korea), followed by electrophoresis using a 1.5 % agarose gel, and gene expression was examined in the RNA level by a Bio-Rad gel image system.

[3] = system: Ha3-II, Keratin 5, Keratin 14, and Keratin 19 in human hair outer root sheath cells (HHORSCs); assay: RT-PCR of activators of outer root sheath cells; type: cell-based; conditions: RNA level; 5 µM, or 50 µM, 24 hours; FIGS. 11 and 12
Protocol: In this experimental example, effects of a peptide according to an embodiment on expression of type I cuticular Ha3-II (Ha3-II), Keratin 5, Keratin 14, and Keratin 19, which are cytokine related to activation of human hair outer root sheath cells (HHORSCs), were examined. Specifically, human hair outer root sheath cells were seeded on a 6-well plate at a density of 4×10^5 cell/well, followed by incubation for 24 hours in a mesenchymal stem cell complete media. Subsequently, the culture medium was replaced with a serum free mesenchymal stem cell complete medium, followed by incubation for 24 hours. Thereafter, a peptide according to an embodiment was aliquoted thereinto at a concentration of […], 5 µM, or 50 µM, followed by incubation for 24 hours at 37 °C. Then, gene expression was examined in the RNA level in the same manner as in Experimental Example 2-3 by using primers of Table 3 below. Meanwhile, a untreated group was used as a control, and a group treated with 50 nM EGF was used as a positive control.

[4] = system: HOXC13, MSX2, and FOXN1 in human hair germinal matrix cells (HHGMCs); assay: RT-PCR of activators of germinal matrix cells; type: cell-based; conditions: RNA level; 5 µM, or 50 µM, 24 hours; FIGS. 13 and 14
Protocol: In this experimental example, effects of a peptide according to an embodiment on expression of Homeobox protein Hox-C13 (HOXC13), Msh homeobox 2 (MSX2), and Forkhead box protein N1 (FOXN1), which are transcription factors related to activation of human hair germinal matrix cells ([…]), were examined. Specifically, human hair germinal matrix cells were seeded on a 6-well plate at a density of 4×10^5 cell/well, followed by incubation for 24 hours in a mesenchymal stem cell complete medium. Subsequently, the culture medium was replaced with a serum free mesenchymal stem cell complete medium, followed by incubation for 24 hours. Thereafter, a peptide according to an embodiment was aliquoted thereinto at a concentration of […], 5 μM, or 50 μM, followed by incubation for 24 hours at 37 °C. Then, gene expression was examined in the RNA level in the same manner as in Experimental Example 2-3 by using primers of Table 4 below. Meanwhile, a untreated group was used as a control, and a group treated with 50 nM EGF was used as a positive control.

Substance: Arg (R)-Cys (C)-Cys (C)-Gly (G) [Peptide-1]
- migration of beta-catenin from cytoplasm to a nucleus (beta-catenin): confirmed
- phosphorylation of ERF and AKT (ERF and AKT): induced
- proliferation of dermal papilla cells [1]: promoted
- expression of DKK-1 (DKK-1 (Dickkopf-1)): inhibited
- expression of LEF-1, c-Myc, and/or cyclin D1 [2]: increased
- expression of Ha3-II, Keratin 14, and Keratin 19 [3]: increased
- expression of HOXC13, MSX2, and FOXN1 [4]: increased
